“Also recorded” adds a separate entry of the source.
How the values were obtained:
[1] = system: E5C3 CB-hiPSC; test: Retention of TRA-1-81+SSEA4+ phenotype by FACS after removing single inhibitors from LIF-4i; format: cell-based, human; conditions: for Effect of removing the inhibitor from LIF-4i on the TRA-1-81+SSEA4+ phenotype: E5C3 kept in LIF-4i for 3 passages (6 days), then inhibitor removed, feeder-free
From the text: FIGS. 8A-8C. […] Alternatively, E5C3 CB-hiPSC were maintained in LIF-4i for 3passages (6 days) and then cither XAV939 (E5C3-XAV939, square datapoints, dotted line) or Go6983 (E5C3 LIF-3i, triangles, dashed line) were removed from the LIF-4i formulation. […] (8B) Representative photomicrographs and flow cytometry plots of CB-hiPSC when continuously cultured in LIF-4i (LIF+4i, 6 passages), or when cultured in LIF-4i for 3 passages and then transferred into FF conditions that omitted for 3 passages the PKC inhibitor Go6983 (LIF+3i) or the tankyrase/PARP inhibitor XAV939 (without XAV939) or without XAV939 and reducing the concentration of CHIR99021 (without XAV939, CHIR 1 uM).

[2] = system: Primed E8 and LIF-4i UTIRN-hiPSC; test: DNA damage induction with radiomimetic, Western blot of DNA repair machinery; format: cell-based, human; conditions: 4 hours treatment; TIRN-hPSC vs primed E8 hPSC
From the text: FIGS. 20A-20B. Induction of DNA damage in primed hPSC and XF/FF UTIRN-hPSC following exposure to the radiomimetic DNA damage inducing agent neocarzinostatin (NCS). Unlike somatic cells, naïve mouse embryonic stem cells (ESC) employ homologous recombination machinery to repair double strand breaks. However, imbalanced levels of DNAPKc in mouse ESC results into poor capacity for rejoining of radiation-induced DNA double-strand breaks in comparison to human primed ESC.
Methods. Conventional (primed) XF CB-hiPSC lines and control H9 hESC were grown in E8 medium. Isogenic TIRN-hPSC were cultured in parallel using LIF-4i. For Western blotting, whole cell lysates were prepared in RIPA buffer, 1.5 mM EDTA with protease inhibitor. Protein lysates were quantified using the BCA assay. Equal amounts of total protein lysate (e.g., 20 μg) were loaded into precast polyacrylamide gradient gels, size-separated using the Mini-PROTEAN electrophoresis system and blotted onto PDVF membranes for chemiluminescent analysis. Primed hPSC and isogenic TIRN-hPSC were assayed for endogenous DNA damage during routine culture (FIG. 20) or upon DSB induction using the radiomimetic agent neocarzinostatin (NCS). In these experiments, hPSC were treated for 4 hours with NCS before preparing lysates. […]

[3] = system: LIF-4i UTIRN-CB-hiPSC (E32C6XF); test: Cell attachment during passaging onto Vitronectin-XF-coated plates; format: cell-based, human; conditions: overnight exposure, 2-5 uM
From the text: FIGS. 9A-9C. Optimization of the transition step from E8 primed hPSC conditions to LIF-4i TIRN conditions: clonal cell passaging. (9A) Clonal efficiency during the first passage in LIF-4i TIRN conditions for hESC line (RUES01). Supplementation of LIF-3i with forskolin and purmophamine (i.e., LIF-5i) and brief adaptation of primed hPSC was previously shown to facilitate clonal transition and survival of primed cells to TIRN hPSC when subsequently cultured continuously in LIF-3i TIRN conditions on feeders. […] Therefore, the brief LIF-5i adaptation period was limited to only overnight exposure prior to passaging. […] (9A—middle, right panels) In contrast, high density culture in E8 (e.g., up to 6 days) prior to passaging in LIF-4i negatively impacted the transition into LIF-4i TIRN conditions. Photomicrographs represent primed cultures immediately prior to passaging into LIF-4i TIRN conditions. (9B) Requirement for ROCK inhibitor Y27632during passaging.
FIG. 7A outlines the transition between primed (i.e. E8) and the LIF-4i FF-TIRN-reverted system. Upon passaging into LIF-4i, hPSC immediately adopt a smaller dome-shaped morphology that expands from single cells. Photomicrographs document the morphology of the hiPSC line 6.2 during the first passages into LIF-4i (bulk passaging without colony picking) and after stable expansion for 10 consecutive passages (FIG. 7B). […]

[4] = system: tankyrases 1 and 2 (TANK 1/2) and AXIN-1 proteins; test: Western blot of tankyrase-regulated proteins in primed vs LIF-4i TIRN cultures; format: cell-based, human; conditions: LIF-4i (contains XAV939) vs isogenic primed E8
Description: Western blots were performed of primed vs. TIRN lysates of hESC RUES02 and three independent XF/FF UTIRN CB-hiPSC lines (E32C1XF, E32C4XF, E32C6XF). ACTIN, HSP90 and total STAT3 served as internal loading controls. Western blots of XAV939-inhibited proteolysis of tankyrases 1 and 2(TANK 1/2) and AXIN-1 proteins in isogenic primed vs. TIRN conditions for TIRN-reverted RUES02 and XF/FF CB-hiPSC lines. Western blot analysis of hPSC lines in primed (E8) and naïve (LIF-4i) cultures for expression of phosphorylated (phospho.) STAT3 and ERK1/2, tankyrase 1/2 and axin1.
Cell lysates were prepared from parallel primed (E8) and TIRN (LIF-4i) cultures and 20 or 35 ug of proteins were loaded per lane.

[5] = system: tankyrase PARylating activity and PARP1-mediated PARylation; conditions: 293T cells; cited from earlier work

Cc1cnc(-c2cnc(NCCNc3ccc(C#N)cn3)nc2-c2ccc(Cl)cc2Cl)[nH]1 [CHIR99021, 6-[[2-[[4-(2,4-Dichlorophenyl)-5-(5-methyl-1H-imidazol-2-yl)-2-pyrimidinyl]amino]ethyl]amino]-3-pyridinecarbonitrile]
Rescue of XAV939 depletion by reduced CHIR99021 concentration ([1]; E5C3, without XAV939, CHIR99021 @ 1 uM): not rescued

neocarzinostatin [NCS]
phospho-H2AX response to DSB induction [2]: elevated levels of phospho-H2AX

C[C@@H](N)[C@H]1CC[C@H](C(=O)Nc2ccncc2)CC1 [Y-27632]
Promotion of cell attachment during passaging [3]: sufficient and required to promote efficient attachment

Oc1nc(-c2ccc(C(F)(F)F)cc2)nc2c1CSCC2 [XAV939]
Effect of removing the inhibitor from LIF-4i on the TRA-1-81+SSEA4+ phenotype [1]: rapid loss of TRA-1-81 and SSEA4 expression | Levels of tankyrase-PARylation-regulated proteins (AXIN1, tankyrases) [4]: tankyrase auto-PARylation and proteolysis is inhibited by XAV939; also recorded: upregulated | Effect on tankyrase and PARP1-mediated PARylation [5]: downregulate tankyrase PARylating activity, but also PARP1-mediated PARylation

COc1ccc2c(c1)c(C1=C(c3c[nH]c4ccccc34)C(=O)NC1=O)cn2CCCN(C)C [Go6983]
Effect of removing the inhibitor from LIF-4i on the TRA-1-81+SSEA4+ phenotype [1]: hiPSC started differentiating after a few days without Go6983

Source: US20240384232A1, “CLINICAL-GRADE THERAPEUTIC PROGENITORS GENERATED FROM TANKYRASE/PARP-INHIBITED PLURIPOTENT STEM CELL BANKS” (THE JOHNS HOPKINS UNIVERSITY, priority 2022, published 2024)
